Results reported in US9695155B2, “Herbicidal substituted pyrimidinyloxy benzene compounds” (E. I. DU PONT DE NEMOURS AND COMPANY, priority 2013, dated 2017).

Columns and labels:
corn = assay: Test E postemergence; type: in vivo, Zea mays
From the text: (§1) Seeds of plant species selected from corn (Zea mays), soybean (Glycine max), velvetleaf (Abutilon theophrasti), lambsquarters (Chenopodium album), wild poinsettia (Euphorbia heterophylla), palmer pigweed (Amaranthus palmeri), waterhemp (common waterhemp, Amaranthus rudis), surinam grass (Brachiaria decumbens), large (Lg) crabgrass (Digitaria sanguinalis), Brazilian crabgrass (Digitaria horizontalis), fall panicum (Panicum dichotomiflorum), giant foxtail (Setaria faberii), green foxtail (Setaria viridis), goosegrass (Eleusine indica), johnsongrass (Sorghum halepense), ragweed (common ragweed, Ambrosia elatior), barnyardgrass (Echinochloa crus-galli), sandbur (southern sandbur, Cenchrus echinatus), arrowleaf sida (Sida rhombifolia), Italian ryegrass (Lolium multiflorum), dayflower (Virginia (VA) dayflower, Commelina virginica), field bindweed (Convolvulus arvensis), morningglory (Ipomoea coccinea), nightshade (eastern black nightshade, Solanum ptycanthum), kochia (Kochia scoparia), yellow nutsedge (Cyperus esculentus), cocklebur (common cocklebur, Xanthium strumarium), smartweed (ladysthumb smartweed, and hairy beggarticks (Bidens pilosa), were planted into a silt loam soil and treated preemergence with test chemicals formulated in a non-phytotoxic solvent mixture which included a surfactant.
(§2) At the same time, plants from these crop and weed species and also horseweed (Canada horseweed, Conyza canadensis), waterhemp_RES1, (ALS & Triazine resistant common waterhemp, Amaranthus rudis), and waterhemp_RES2, (ALS & HPPD resistant common waterhemp, Amaranthus rudis) were planted in pots containing Redi-Earth® planting medium (Scotts Company, 14111 Scottslawn Road, Marysville, Ohio 43041) comprising spaghnum peat moss, vermiculite, wetting agent and starter nutrients were treated with postemergence applications of test chemicals formulated in the same manner. Plants ranged in height from 2 to 18 cm for postemergence treatments (1- to 4-leaf stage). Treated plants and controls were maintained in a greenhouse for 14 to 21 days, after which time all species were compared to controls and visually evaluated. Plant response ratings, summarized in Table E, are based on a scale of 0 to 100 where 0 is no effect and 100 is complete control. A dash (-) response means no test result.

palmer pigweed = assay: Test E postemergence; type: in vivo, Amaranthus palmeri
From the text: as §1, §2

arrowleaf sida = assay: Test E postemergence; type: in vivo, Sida rhombifolia
From the text: as §1, §2

blackgrass = assay: Test D preemergence; type: in vivo, Alopecurus myosuroides
Outline: (§3)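 Species were sown in silt loam for preemergence treatment, or grown in peat-based medium to the 1–4-leaf stage (2–18 cm) for postemergence sprays. Test chemicals were formulated in a non-phytotoxic solvent mixture with surfactant. After 7–21 days in a controlled environment, plants were rated visually against controls on a 0 (no effect) to 100 (complete control) scale.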

deadnettle [1] = assay: Test D preemergence; type: in vivo, Lamium amplexicaule
Outline: as §3

kochia = assay: Test D preemergence; type: in vivo, Kochia scoparia
Outline: as §3

lambsquarters [2] = assay: Test D preemergence; type: in vivo, Chenopodium album
Outline: as §3

wild buckwheat = assay: Test D preemergence; type: in vivo, Polygonum convolvulus
Outline: as §3

chickweed = assay: Test D postemergence; type: in vivo, Stellaria media
Outline: as §3

galium = assay: Test D postemergence; type: in vivo, Galium aparine
Outline: as §3

deadnettle [3] = assay: Test D postemergence; type: in vivo, Lamium amplexicaule
Outline: as §3

lambsquarters [4] = assay: Test D postemergence; type: in vivo, Chenopodium album
Outline: as §3

speedwell = assay: Test D postemergence; type: in vivo, Veronica persica
Outline: as §3

wild mustard = assay: Test D postemergence; type: in vivo, Sinapis arvensis
Outline: as §3

[5] = Postemergence, 31 g ai/ha, scale 0 to 100
[6] = Postemergence, 62 g ai/ha, scale 0 to 100
[7] = Postemergence, 125 g ai/ha, scale 0 to 100
[8] = postemergence, 8 g ai/ha, scale 0 to 100, 0 no effect, 100 complete control
[9] = postemergence, 16 g ai/ha, scale 0 to 100, 0 no effect, 100 complete control
[10] = 31 g ai/ha, scale 0 (no effect) to 100 (complete control)
[11] = 62 g ai/ha, scale 0 to 100 (0 no effect, 100 complete control)
[12] = 125 g ai/ha, scale 0 to 100 (0 no effect, 100 complete control)
[13] = 250 g ai/ha, scale 0 to 100 (0 no effect, 100 complete control)
[14] = 16 g ai/ha, scale 0 (no effect) to 100 (complete control)
[15] = 31 g ai/ha, scale 0 to 100 (0 no effect, 100 complete control)

Clc1cnc(Oc2cccc(Br)c2-n2cc(Br)cn2)nc1 [Compound 65]
0: Plant response rating, Corn (corn; [8]) | Plant response rating, Corn (corn; [9])
80: Plant response rating, Arrowleaf Sida (arrowleaf sida; [6]) | Plant response rating, Arrowleaf Sida (arrowleaf sida; [7])
55: Plant response rating, Arrowleaf Sida (arrowleaf sida; [8])
20: Plant response rating, Pigweed, Palmer (palmer pigweed; [9])
50: Plant response rating, Pigweed, Palmer (palmer pigweed; [5]) | Plant response rating, Pigweed, Palmer (palmer pigweed; [6]) | Plant response rating, Arrowleaf Sida (arrowleaf sida; [9])
10: Plant response rating, Corn (corn; [5]) | Plant response rating, Corn (corn; [6]) | Plant response rating, Corn (corn; [7]) | Plant response rating, Pigweed, Palmer (palmer pigweed; [8])
60: Plant response rating, Pigweed, Palmer (palmer pigweed; [7]) | Plant response rating, Arrowleaf Sida (arrowleaf sida; [5])

N#Cc1cccc(Oc2ncc(Cl)cn2)c1-n1cc(-n2ccc(C(F)(F)F)n2)cn1 [Compound 284]
95: Plant response rating, Kochia (kochia; 250 g ai/ha, scale 0-100) | Plant response rating, Galium (galium; [13])
98: Plant response rating, Lambsquarters (lambsquarters [4]; [11])
70: Plant response rating, Buckwheat, Wild (wild buckwheat; 125 g ai/ha, scale 0-100) | Plant response rating, Galium (galium; 31 g ai/ha, scale 0-100) | Plant response rating, Deadnettle (deadnettle [3]; 31 g ai/ha, scale 0-100) | Plant response rating, Speedwell (speedwell; 31 g ai/ha, scale 0-100)
35: Plant response rating, Blackgrass (blackgrass; 125 g ai/ha, scale 0-100) | Plant response rating, Deadnettle (deadnettle [1]; [10])
45: Plant response rating, Deadnettle (deadnettle [1]; 62 g ai/ha, scale 0-100)
65: Plant response rating, Blackgrass (blackgrass; 250 g ai/ha, scale 0-100)
20: Plant response rating, Kochia (kochia; 62 g ai/ha, scale 0-100) | Plant response rating, Buckwheat, Wild (wild buckwheat; 62 g ai/ha, scale 0-100)
10: Plant response rating, Blackgrass (blackgrass; 62 g ai/ha, scale 0-100) | Plant response rating, Buckwheat, Wild (wild buckwheat; [10])
30: Plant response rating, Lambsquarters (lambsquarters [2]; [10])
90: Plant response rating, Chickweed (chickweed; [12])
0: Plant response rating, Blackgrass (blackgrass; [10]) | Plant response rating, Kochia (kochia; [10])
85: Plant response rating, Chickweed (chickweed; [11]) | Plant response rating, Galium (galium; [11]) | Plant response rating, Galium (galium; [12]) | Plant response rating, Lambsquarters (lambsquarters [4]; 31 g ai/ha, scale 0-100)
80: Plant response rating, Chickweed (chickweed; 31 g ai/ha, scale 0-100)
100: Plant response rating, Deadnettle (deadnettle [1]; 250 g ai/ha, scale 0-100) | Plant response rating, Kochia (kochia; 125 g ai/ha, scale 0-100) | Plant response rating, Lambsquarters (lambsquarters [2]; 62 g ai/ha, scale 0-100) | Plant response rating, Lambsquarters (lambsquarters [2]; 125 g ai/ha, scale 0-100) | Plant response rating, Lambsquarters (lambsquarters [2]; 250 g ai/ha, scale 0-100) | Plant response rating, Buckwheat, Wild (wild buckwheat; 250 g ai/ha, scale 0-100) | Plant response rating, Chickweed (chickweed; [13]) | Plant response rating, Deadnettle (deadnettle [3]; [11]) | Plant response rating, Deadnettle (deadnettle [3]; [12]) | Plant response rating, Deadnettle (deadnettle [3]; [13]) | Plant response rating, Lambsquarters (lambsquarters [4]; [12]) | Plant response rating, Lambsquarters (lambsquarters [4]; [13]) | Plant response rating, Speedwell (speedwell; [12]) | Plant response rating, Speedwell (speedwell; [13]) | Plant response rating, Mustard, Wild (wild mustard; 31 g ai/ha, scale 0-100) | Plant response rating, Mustard, Wild (wild mustard; [11]) | Plant response rating, Mustard, Wild (wild mustard; [12]) | Plant response rating, Mustard, Wild (wild mustard; [13])
75: Plant response rating, Deadnettle (deadnettle [1]; 125 g ai/ha, scale 0-100) | Plant response rating, Speedwell (speedwell; [11])

Clc1cnc(Oc2ccccc2-n2cc(Cl)cn2)nc1 [Compound 3]
60: Plant response rating, Buckwheat, Wild (wild buckwheat; 125 g ai/ha, scale 0-100) | Plant response rating, Lambsquarters (lambsquarters [4]; [11]) | Plant response rating, Speedwell (speedwell; 16 g ai/ha, scale 0-100) | Plant response rating, Speedwell (speedwell; [12])
75: Plant response rating, Galium (galium; [13]) | Plant response rating, Speedwell (speedwell; [13]) | Plant response rating, Mustard, Wild (wild mustard; 16 g ai/ha, scale 0-100)
0: Plant response rating, Blackgrass (blackgrass; [14]) | Plant response rating, Blackgrass (blackgrass; 31 g ai/ha, scale 0-100) | Plant response rating, Blackgrass (blackgrass; 62 g ai/ha, scale 0-100) | Plant response rating, Blackgrass (blackgrass; 125 g ai/ha, scale 0-100) | Plant response rating, Blackgrass (blackgrass; 250 g ai/ha, scale 0-100) | Plant response rating, Kochia (kochia; [14]) | Plant response rating, Lambsquarters (lambsquarters [2]; [14]) | Plant response rating, Lambsquarters (lambsquarters [2]; 31 g ai/ha, scale 0-100) | Plant response rating, Lambsquarters (lambsquarters [2]; 62 g ai/ha, scale 0-100) | Plant response rating, Buckwheat, Wild (wild buckwheat; [14]) | Plant response rating, Buckwheat, Wild (wild buckwheat; 31 g ai/ha, scale 0-100) | Plant response rating, Buckwheat, Wild (wild buckwheat; 62 g ai/ha, scale 0-100) | Plant response rating, Chickweed (chickweed; [15])
100: Plant response rating, Buckwheat, Wild (wild buckwheat; 250 g ai/ha, scale 0-100)
25: Plant response rating, Lambsquarters (lambsquarters [2]; 125 g ai/ha, scale 0-100) | Plant response rating, Chickweed (chickweed; [11]) | Plant response rating, Lambsquarters (lambsquarters [4]; 16 g ai/ha, scale 0-100)
20: Plant response rating, Deadnettle (deadnettle [3]; [13]) | Plant response rating, Lambsquarters (lambsquarters [4]; [15]) | Plant response rating, Mustard, Wild (wild mustard; [15])
80: Plant response rating, Lambsquarters (lambsquarters [4]; [12])
85: Plant response rating, Lambsquarters (lambsquarters [4]; [13]) | Plant response rating, Mustard, Wild (wild mustard; [13])
40: Plant response rating, Deadnettle (deadnettle [1]; 62 g ai/ha, scale 0-100) | Plant response rating, Deadnettle (deadnettle [1]; 125 g ai/ha, scale 0-100) | Plant response rating, Chickweed (chickweed; 16 g ai/ha, scale 0-100) | Plant response rating, Chickweed (chickweed; [13]) | Plant response rating, Galium (galium; 16 g ai/ha, scale 0-100) | Plant response rating, Galium (galium; [11])
45: Plant response rating, Galium (galium; [12]) | Plant response rating, Speedwell (speedwell; [11])
10: Plant response rating, Deadnettle (deadnettle [3]; 16 g ai/ha, scale 0-100) | Plant response rating, Deadnettle (deadnettle [3]; [15]) | Plant response rating, Deadnettle (deadnettle [3]; [11]) | Plant response rating, Deadnettle (deadnettle [3]; [12])
50: Plant response rating, Deadnettle (deadnettle [1]; 250 g ai/ha, scale 0-100) | Plant response rating, Kochia (kochia; 250 g ai/ha, scale 0-100) | Plant response rating, Lambsquarters (lambsquarters [2]; 250 g ai/ha, scale 0-100)
30: Plant response rating, Deadnettle (deadnettle [1]; [14]) | Plant response rating, Deadnettle (deadnettle [1]; 31 g ai/ha, scale 0-100) | Plant response rating, Kochia (kochia; 31 g ai/ha, scale 0-100) | Plant response rating, Kochia (kochia; 62 g ai/ha, scale 0-100) | Plant response rating, Kochia (kochia; 125 g ai/ha, scale 0-100) | Plant response rating, Chickweed (chickweed; [12]) | Plant response rating, Galium (galium; [15]) | Plant response rating, Speedwell (speedwell; [15])
35: Plant response rating, Mustard, Wild (wild mustard; [11]) | Plant response rating, Mustard, Wild (wild mustard; [12])
